From patent publication US20220169598A1, “HALOGENATED PHENYLSULFONAMIDE HYDROXAMIC ACID COMPOUNDS, COMPOSITIONS AND USES THEREOF AS SELECTIVE HDAC6 INHIBITORS” (2681603 ONTARIO INC., priority 2019, published 2022)

Assays:
HDAC6 = target: T1, HDAC6 (Homo sapiens, UniProt Q9UBN7); test: Enzyme kinetic parameters, time-based experiments; assay type: biochemical
T1 sequence (Q9UBN7 1-1215): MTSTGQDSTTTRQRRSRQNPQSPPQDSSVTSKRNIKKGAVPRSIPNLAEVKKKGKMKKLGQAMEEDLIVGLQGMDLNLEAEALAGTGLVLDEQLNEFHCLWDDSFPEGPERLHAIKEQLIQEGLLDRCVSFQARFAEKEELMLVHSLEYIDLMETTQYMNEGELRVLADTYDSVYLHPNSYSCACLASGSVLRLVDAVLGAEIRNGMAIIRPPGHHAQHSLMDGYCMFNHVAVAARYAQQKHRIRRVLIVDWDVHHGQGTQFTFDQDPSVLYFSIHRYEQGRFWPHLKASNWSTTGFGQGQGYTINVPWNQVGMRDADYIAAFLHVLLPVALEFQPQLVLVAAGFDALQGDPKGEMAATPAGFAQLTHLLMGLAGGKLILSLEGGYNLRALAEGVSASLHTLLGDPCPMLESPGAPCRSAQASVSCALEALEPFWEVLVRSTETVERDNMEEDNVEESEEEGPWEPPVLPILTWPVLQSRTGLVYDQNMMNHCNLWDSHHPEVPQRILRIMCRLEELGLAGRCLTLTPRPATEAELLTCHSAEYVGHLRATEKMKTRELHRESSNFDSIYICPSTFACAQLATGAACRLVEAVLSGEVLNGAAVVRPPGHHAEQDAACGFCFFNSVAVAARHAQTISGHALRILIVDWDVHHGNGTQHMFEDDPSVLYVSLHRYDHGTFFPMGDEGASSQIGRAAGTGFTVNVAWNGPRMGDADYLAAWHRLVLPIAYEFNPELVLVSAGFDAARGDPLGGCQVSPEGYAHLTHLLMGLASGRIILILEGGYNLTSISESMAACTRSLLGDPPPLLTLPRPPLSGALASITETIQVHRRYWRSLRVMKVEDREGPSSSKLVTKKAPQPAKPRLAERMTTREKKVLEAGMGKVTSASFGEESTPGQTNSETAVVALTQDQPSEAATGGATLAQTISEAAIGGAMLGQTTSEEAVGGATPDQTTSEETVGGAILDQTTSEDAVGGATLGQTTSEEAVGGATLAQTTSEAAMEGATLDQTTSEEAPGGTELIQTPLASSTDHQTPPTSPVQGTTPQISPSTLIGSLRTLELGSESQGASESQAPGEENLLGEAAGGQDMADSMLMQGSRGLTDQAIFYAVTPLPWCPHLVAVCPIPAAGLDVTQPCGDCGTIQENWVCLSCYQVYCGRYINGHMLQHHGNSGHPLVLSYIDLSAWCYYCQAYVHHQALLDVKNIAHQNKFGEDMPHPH
Description: To determine the kinetic parameters for the formation and maintenance of the HDAC6:1-18 complex, several time-based experiments were performed, which are shown in Table 2.

HeLa cells = test: Immunofluorescence analysis of α-tubulin and histone H3 acetylation; assay type: cell-based; settings: 6 h treatment
Text: Similar analysis is shown for exemplary compound I-34 in FIG. 19.

Row | SMILES | Ki (HDAC6; HDAC6) | IC50 (HDAC6; HDAC6, no preincubation) | effect on α-tubulin acetylation (immunofluorescence) (HeLa cells)
1 | O=C(NO)c1ccc(CN(Cc2cccnc2)S(=O)(=O)c2cc(F)c(F)c(F)c2F)cc1 [Compound I-18, N-hydroxy-4-((2,3,4,5-tetrafluoro-N-(pyridin-3-ylmethyl)phenylsulfonamido)methyl)benzamide] | 1.4 nM | 4 nM | –
2 | O=C(NO)c1ccc(CN(C2CC2)S(=O)(=O)c2cc(F)c(F)c(F)c2F)cc1 [Compound I-13, 4-((N-cyclopropyl-2,3,4,5-tetrafluorophenylsulfonamido)methyl)-N-hydroxybenzamide] | – | – | substantially strong effect on tubulin acetylation
